≈ marks a conversion by molar mass, not a printed value. Peptide text beside a SMILES is read from it. Where only a bound is given, the exact number is not on record here.

Assay [1] concerns VR Enterococcus faecalis NCTC 12201. Type of assay: cell-based. Particulars: NCTC 12201, 18 h. The method, then:
(§1) The antibacterial activity of the peptides studied was assessed through a modified two-fold broth microdilution assay, as described before. Briefly, a two-fold dilution of peptide stock solutions was performed in either non-cation adjusted Müller-Hinton broth (MHB) or Tryptic Soy broth (TSB) in a 96-well polypropylene microtiter plate. Then, 100 µl of bacterial suspension (back diluted from overnight cultures to an A600 of 0.01) were added to 100 µl of peptide solution in each well of the plate. Growth and sterility controls were present for each experiment. The plate was incubated at 37 °C for 18 hours without shaking and the MIC was defined as the lowest concentration where no visible growth could be detected by measuring the absorbance (A600) on an Omega plate reader.

In assay [2] the test system is EMR Staphylococcus aureus-16 NCTC 13277. The format is cell-based. Particulars: NCTC 13277, 18 h. The protocol:
as §1

Assay [3] concerns VS Enterococcus faecalis NCTC 775. The format is cell-based. The settings on record: NCTC 775, 18 h. The protocol:
as §1

Assay [4] concerns Pseudomonas aeruginosa NCTC 13437. Type of assay: cell-based. Particulars: NCTC 13437, 18 h. The method, then: as §1
Assay [5] deals with EMR Staphylococcus aureus−15 NCTC 13616. Type of assay: cell-based. Particulars: NCTC 13616, 18 h. The protocol:
as §1

In assay [6] the test system is Pseudomonas aeruginosa PAO1. The format is cell-based. The settings on record: PAO1, 18 h. The method, then: as §1
Assay [7] deals with Acinetobacter baumanii AYE. Type of assay: cell-based. The settings on record: 18 h. The method, then: as §1
For assay [8], the system named is MS Staphylococcus aureus NCTC 6571. The format is cell-based. The settings on record: NCTC 6571, 18 h. The method, then:
as §1

Assay [9] has as its system E. coli cytoplasmic membrane. Particulars: cited from earlier work. The source says: Here we investigated whether a combined biophysical approach is capable of discriminating the species specific antibacterial mechanisms of action between three analogues of temporin B. Although structures for the three peptides solved in anionic SDS were noticeably different, when applied to model membranes, little difference in conformation could be discerned in the steady-state. To address this, we developed an approach using the Port-a-Patch® tool from Nanion Technologies (Munich, Germany) and correlated the findings obtained from patch-clamp analysis to the primary sequence and the biophys ...

The next assay concerns Gram-negative bacteria. The settings on record: cited from earlier work.

`CC[C@H](C)[C@H](NC(=O)[C@@H]1CCCN1C(=O)[C@H](CC(C)C)NC(=O)[C@H](CC(C)C)NC(=O)[C@H](CCCCN)NC(=O)[C@@H](N)CCCCN)C(=O)N[C@H](C(=O)N[C@@H](C)C(=O)N[C@@H](CC(N)=O)C(=O)N[C@@H](CC(C)C)C(=O)N[C@@H](CC(C)C)C(=O)N[C@@H](CCCCN)C(=O)N[C@@H](CO)C(=O)N[C@@H](CC(C)C)C(=O)N[C@@H](CC(C)C)C(N)=O)C(C)C` [Temporin B KKG6A] (H-KKLLPIVANLLKSLL-NH2): the “MIC, peptide concentration” value in assay [1], in assay [2], in assay [3], in assay [4] and in [5] was >128 µg/mL each time.
For `CC[C@H](C)[C@H](NC(=O)[C@@H]1CCCN1C(=O)[C@H](CC(C)C)NC(=O)[C@@H](N)Cc1ccccc1)C(=O)N[C@H](C(=O)NCC(=O)N[C@@H](CC(C)C)C(=O)N[C@@H](CC(C)C)C(=O)N[C@@H](CCCCN)C(=O)N[C@@H](CO)C(=O)N[C@@H](CC(C)C)C(=O)N[C@@H](CC(C)C)C(=O)N[C@@H](CCCCN)C(N)=O)C(C)C` [Temporin B L1FK] (H-FLPIVGLLKSLLK-NH2), the “MIC, peptide concentration” value in assay [6] is 128 µg/mL (≈ 88.9 µM); in [2], 16 µg/mL (≈ 11.1 µM); in assay [5], 16 µg/mL (≈ 11.1 µM); in assay [7], 8 µg/mL (≈ 5.56 µM).
As to `CC[C@H](C)[C@H](NC(=O)[C@@H]1CCCN1C(=O)[C@H](CC(C)C)NC(=O)[C@@H](N)CC(C)C)C(=O)N[C@H](C(=O)NCC(=O)N[C@@H](CC(N)=O)C(=O)N[C@@H](CC(C)C)C(=O)N[C@@H](CC(C)C)C(=O)N[C@@H](CCCCN)C(=O)N[C@@H](CO)C(=O)N[C@@H](CC(C)C)C(=O)N[C@@H](CC(C)C)C(N)=O)C(C)C` [Temporin B] (H-LLPIVGNLLKSLL-NH2), the “MIC, peptide concentration” value was >128 µg/mL in assay [6], 32 µg/mL (≈ 23 µM) in assay [2] and 16 µg/mL (≈ 11.5 µM) in [8].
Take LL-37: human antimicrobial peptide: the “Time to permeabilization of the E. coli cytoplasmic membrane and induction of oxidative stress” value in [9] is listed as “around 25 minutes”.
A word on the MIC: it is the smallest concentration in the dilution series that meets the test's criterion for growth inhibition. As to temporin L, the MIC in the assay with Gram-negative bacteria is 2 to 20 µM.

The record behind these values is PMC6362004, “Minor sequence modifications in temporin B cause drastic changes in antibacterial potency and selectivity by fundamentally altering membrane activity” (Scientific Reports, 2019).
